The record followed here is patent US8729116B2, “Triazole compound having pesticidal activities” (Kumiai Chemical Industry Co., Ltd., priority 2010, dated 2014).

Holding throughout (assay type): in vivo
For series [1], the system named is susceptible strain two-spotted spider mite (Tetranychus urticae). The series can be described thus: Miticidal activity against adults of two-spotted spider mite (susceptible strain), leaf disk spray test. The following applies: foliar, 48 h, spray 2 mg/cm^2 on kidney bean leaf disks, female adults, two days after treatment. How it is done: Miticidal Activity Against Adults of Two-Spotted Spider Mite (Susceptible Strain) (Leaf Disk Spray Test)
A plastic cup having a capacity of 60 mL was half-filled with water, and a perforated cover was put thereon. Absorbent cotton was impregnated with water through the perforations, and two sheets of filter paper were overlaid thereon. Two leaves of kidney beans (Phaseolus vulgaris) cutout in a circular shape with a diameter of 2, cm, were put thereon, and ten female adults of susceptible strain two-spotted spider mite (Tetranychus urticae) were inoculated and left to stand overnight in a constant temperature chamber at 25° C. (photoperiod conditions: light period of 16 hours/dark period of 8 hours). […] Upon expiration of two days after the treatment, the number of dead mites was counted, and the mortality was calculated by the formula 1. The test was carried out twice.

In series [2] the test system is resistant strain two-spotted spider mite (Tetranychus urticae). The series can be described thus: Miticidal activity against adults of two-spotted spider mite (resistant strain), leaf disk spray test. The note with it: spray 2 mg/cm^2 on kidney bean leaf disks, female adults, two days after treatment; for Mortality (%): 100 ppm. On the procedure: Miticidal Activity Against Adults of Two-Spotted Spider Mite (Resistant Strain) (Leaf Disk Spray Test)
A plastic cup having a capacity of 60 mL was half-filled with water, and a perforated cover was put thereon. Absorbent cotton was impregnated with water through the perforations, and two sheets of filter paper were overlaid thereon. Two leaves of kidney beans (Phaseolus vulgaris) cutout in a circular shape with a diameter of 2 cm, were put thereon, and ten female adults of resistant strain two-spotted spider mite (Tetranychus urticae) were inoculated and left to stand overnight in a constant temperature chamber at 25° C. (photoperiod conditions: light period of 16 hours/dark period of 8 hours). After removing abnormal mites and dead mites, a pesticide prepared by diluting the test compound formulated in accordance with Formulation Example 2 with a diluent such as water, as shown in Table 2 was sprayed by an automatic spraying device (2 mg/cm^2). Upon expiration of two days after the treatment, the number of dead mites was counted, and the mortality was calculated by the formula 1. The test was carried out twice.

The subject of series [3] is resistant strain red mite (Panonychus citri). The series can be described thus: Miticidal activity against adults of red mite (resistant strain), leaf disk spray test. The note with it: spray 2 mg/cm^2 on cinnamon leaf disks, female adults, two days after treatment; for Mortality (%): 6.25 ppm. On the procedure:
Miticidal Activity Against Adults of Red Mite (Resistant Strain) (Leaf Disk Spray Test)
0.5 mass % of agar was blended to water and put into a plastic cup having a capacity of 60 mL, and two cinnamon leaf disks were put thereon and ten female adults of resistant strain red mite (Panonychus citri) were inoculated and left to stand overnight at a constant temperature chamber at 25° C. (photoperiod conditions: light period of 16 hours/dark period of 8 hours). […] Upon expiration of two days after the treatment, the number of dead mites was counted, and the mortality was calculated by the formula 1. The test was carried out twice.

The test system of series [4] is susceptible strain two-spotted spider mite (Tetranychus urticae). The series can be described thus: Penetration/transfer activity against two-spotted spider mite (susceptible strain), soil irrigation cup test. The following applies: 0.0031 mg a.i./seedling, soil drench 5 mL/seedling, soybean, live mites counted after 13 days. How it is done: Penetration/Transfer Activity Against Two-Spotted Spider Mite (Susceptible Strain) (Soil Irrigation Cup Test)
To soybean (Glycine max) planted in a plastic cup, 35 female adults of susceptible strain two-spotted spider mite (Tetranychus urticae) were inoculated and left to stand overnight at a constant temperature chamber at 25° C. (photoperiod conditions: light period of 16 hours/dark period of 8 hours). A test pesticide prepared by diluting the test compound formulated in accordance with Formulation Example 2 to a predetermined concentration as disclosed in Table 4, was applied by soil drench treatment (5 mL/seedling). Upon expiration of 13 days, the number of live mites was counted, and the preventive value was calculated by the formula 2. The test was carried out twice.

For orientation: mortality means the share of the test organisms that died. A high value points to a strong lethal effect.

For the molecule `Cc1cc(F)c(-n2nc(C(F)(F)F)nc2N)cc1[S+]([O-])CC(F)(F)F` (racemic) [Compound No. II, 1-[2-fluoro-4-methyl-5-(2,2,2-trifluoroethylsulfinyl)phenyl]-5-amino-3-(trifluoromethyl)-1H-1,2,4-triazole, reference compound], the mortality at 3.125 ppm in series [1] amounted to 8%. The mortality at 100 ppm in series [2] (Tetranychus urticae, foliar, 48 h) worked out at 16%. For the same molecule, the mortality at 6.25 ppm in series [3] (Panonychus citri, foliar, 48 h) came to 36%. The “Preventive value (%)” value in series [4] stood at 0%.

Consider `Cc1cc(F)c(-n2nc(C(F)(F)F)nc2N)cc1[S+]([O-])CC(F)(F)F` (single isomer, unassigned; (-)) [Compound No. III, (−)-1-[2-fluoro-4-methyl-5-(2,2,2-trifluoroethylsulfinyl)phenyl]-5-amino-3-(trifluoromethyl)-1H-1,2,4-triazole], for which, in series [1] (6.25 ppm), the mortality at 6.25 ppm turned out to be 0%. Moreover, the “Mortality (%)” value in series [2] and in series [3] was 0% each time. The “Preventive value (%)” value in series [4] was found to be 0%.

`Cc1cc(F)c(-n2nc(C(F)(F)F)nc2N)cc1[S+]([O-])CC(F)(F)F` (single isomer, unassigned; (+)) [Compound No. I, (+)-1-[2-fluoro-4-methyl-5-(2,2,2-trifluoroethylsulfinyl)phenyl]-5-amino-3-(trifluoromethyl)-1H-1,2,4-triazole] yielded a mortality at 3.125 ppm in series [1] of 79%. Besides, the “Mortality (%)” value was 94% in series [2] and 93% in series [3]. In addition, the “Preventive value (%)” value in series [4] was 100%.
